Patent US20050113334A1, “COMPOSITION AND METHOD” (priority 2003, published 2005)

Test system: Desulfovibrio spp.
Experiment: In vitro fermentation of fibers with canine fecal inoculum, FISH enumeration
Assay type: cell-based
Conditions: 39° C.; for Numbers of Desulfovibrio spp., LOG10 CFU AT 8 HOUR: after 8 hour incubation
Procedure: Fermentation vessels containing anaerobic phosphate buffered medium were prepared and 1 ml canine fecal inoculum (10% w/v fecal sample to buffer) added. The composition of the media was as described in Sunvold G D, Hussein H S, Fahey G C, Merchen N R, and Reinhart G A (1995), In vitro fermentation of selected fiber sources by dogs fecal inoculum and in vivo digestion and metabolism of fiber supplemental diets. J. Animal Sci. 73:1099-1109 (1995). Fermentations were carried out at 39° C. Experiments were conducted in a blind-coded manner with different fibers. […] An aliquot of this was prepared for FISH. […] Genus specific 16SrRNA-targeted probes were synthesized and monolabelled at the 5″ end with fluorescent dye to detect bacteria of interest in the fermentation media. Total nucleic acid was stained to obtain total microbial counts.

Substance | Numbers of Desulfovibrio spp., Log10 CFU AT 0 HOUR | Numbers of Desulfovibrio spp., LOG10 CFU AT 8 HOUR
Fructooligosaccharide | 6.9 ± 1.0 log cfu/ml of fecal inoculum | 6.3 ± 0.8 log cfu/ml of fecal inoculum
Arabinogalactan | 7.5 ± 0.3 log cfu/ml of fecal inoculum | 6.4 ± 1.0 log cfu/ml of fecal inoculum
Inulin | 7.3 ± 0.2 log cfu/ml of fecal inoculum | 6.4 ± 1.0 log cfu/ml of fecal inoculum
Xylooligosaccharide | 7.2 ± 0.4 log cfu/ml of fecal inoculum | 6.8 ± 0.9 log cfu/ml of fecal inoculum
Galacto-oligosaccharide | 7.0 ± 1.0 log cfu/ml of fecal inoculum | 6.8 ± 0.9 log cfu/ml of fecal inoculum
